These results are taken from patent US7728035B2, “Ester derivatives of rhein and their therapeutic use” (Sosei R&D Ltd., priority 2004, dated 2010).

One assay has as its system T-cell proliferation. In words: in vitro T-cell proliferation (cellular assay). The assay is classed as cell-based. As to conditions: assay not described.
The subject of another assay is cytokine production. In words: in vitro cytokine production (cellular assay). The assay is classed as cell-based. Particulars: assay not described.
The subject of assay [1] is clinical signs induced in the EAE model. In words: Experimental Autoimmune Encephalitis (EAE). The assay is classed as in vivo, Male Lewis rats. As to conditions: 150 mg/kg orally twice a day from the day of inoculation; scored daily from day 7 post-inoculation. Here is the method: Experimental Autoimmune Encephalitis (EAE)
Male Lewis rats (250-290 g) (n=10) were injected into both rear foot-pad with 0.1 ml of an emulsion containing equal parts of guinea-pig spinal cord, phosphate buffered saline and incomplete Freund's adjuvant with 8 mg/ml Mycobacterium tuberculosis H37Ra. The compound of Example 1 (150 mg/kg) was dosed orally in a 10% acacia gum vehicle (1 ml/kg) twice a day from the day of inoculation.
Body weights and neurological scores were observed daily from day 7 post-inoculation. The total daily score was calculated for each group and plotted over time. Non-parametric statistical analyses (Kruskal-Wallis) one-way analysis, followed by a Dunn's test, were employed.

The test system of the next assay is TNFα and IL-1β levels. In words: LPS Mouse Assay. The assay is classed as in vivo, Balb-c mice. Here is the method: 7 week old Balb-c mice (n=8) fed and watered ad libitum were dosed at time zero with the compound of Example 1 at 3, 30 and 300 mg/kg in a 1% methylcellulose vehicle by oral gavage (10 ml/kg). 30 minutes after drug treatment mice were intraperitoneally administered with 1 mg/kg LPS (5 ml/kg in normal saline). 2 hours post-LPS challenge blood samples were collected by cardiac puncture under isoflurane anaesthesia. Blood samples were allowed to clot at room temperature for 10 minutes and then put on ice until spun at 6000 g for 3 minutes at 4° C. and then stored at −20° C. until analysis by ELISA for TNFα and IL-1β levels. TNFα and IL-1β levels were reported as pg/ml of serum (mean±SEM) significance was evaluated by a Dunnett's test followed by a Kruskal-Wallis one way analysis followed by a Dunn's test.

On to `O=C(O)c1cc(O)c2c(c1)C(=O)c1cccc(O)c1C2=O` [rhein, 1,8-dihydroxyanthraquinone-3-carboxylic acid], for which, in the assay on T-cell proliferation, the “inhibition of T-cell proliferation” value was “fail to produce a response”. Further, the “inhibition of cytokine production” value in the assay with cytokine production was “fail to produce a response”.
For the compound `O=C(O)c1cc(OC(=O)C2CCOCC2)c2c(c1)C(=O)c1cccc(OC(=O)C3CCOCC3)c1C2=O` [Example 1, 4,5-Bis(tetrahydropyran-4-carbonyloxy)-9,10-dioxo-dihydroanthracene-2-carboxylic acid], the “efficacy on clinical signs (neurological scores) in the EAE model” value in assay [1] was “significant efficacy”. Besides, the “efficacy in the LPS mouse model (summary statement)” value with TNFα and IL-1β levels (mouse, in vivo) is listed as “efficacy”. Besides, the “reduction of TNFα levels post-LPS insult” value in the assay on TNFα and IL-1β levels (serum, ELISA, 3, 30 and 300 mg/kg by oral gavage 30 minutes before 1 mg/kg LPS i.p., blood 2 hours post-LPS, all three doses, dose-dependant) is on record as “significant efficacy on reducing TNFα levels”. For the same compound, in the assay on TNFα and IL-1β levels (serum, ELISA, oral gavage 30 minutes before 1 mg/kg LPS i.p., blood 2 hours post-LPS, at the top two doses (30 and 300 mg/kg)), the “reduction of IL-1β levels post-LPS” value is given as “reduced IL-1β levels”.
